The source of these data is US6756504B2, “Sphingolipids” (Yissum Research Development Company of the Hebrew …, priority 2000, dated 2004).

The test system of series [1] is HL60 cells. The experiment in a line: HL60 total protein content (Bradford). Format: cell-based, Human. How it is done:
(§1) HL60: Human leukemia cell line (ATCC CCL-240).
The effect of the AD-2646 compound on cell viability was further supported when the total protein content was quantified. HL60 cells were incubated as described above, with different concentrations of AD-2646. After 2 days the cells were collected, washed twice with saline, dispersed and following a short pulsing with a probe-sonicator their protein content was quantified by the Bradford procedure. Similarly to the viable cell counting results, the protein measurements indicated an IC50 value of 5 μM.
To analyze whether the AD-2646 compound may mediate its effect on cell viability and on total protein content, in cooperation with other compounds, the cooperative effect of this compound and Taxol was next evaluated. HL60 cells were incubated for two days with 4 μM AD2646 in the presence or absence of 2 ng Taxol.
The effect of different compounds of the invention on cell viability was next evaluated by measuring total cell protein quantity. Different cell lines were incubated for two days in the presence of increasing concentrations of the different compounds of the present invention.

Series [2] concerns HL60 cells. The experiment in a line: HL60 cell viability, viable cell count (trypan blue). Format: cell-based, Human. To be noted: HL60, 2 days, FIG. 1, read-out: IC50, number of living (non-blue) cells. How it is done: as §1
The effect of AD-2646 on cell viability was analyzed by measuring cell mortality (viable cell count) and/or total protein quantity.
HL60 cells grown in RMPI plus 10% fetal calf serum, were incubated with increasing concentrations of (2R,3R)-2-(N-tetradecylamine)-1-(4-nitro-phenyl)-1,3-propanediol (AD-2646) in 6- or 24-well dishes. […] After 2 days the cells were collected, washed twice with saline, treated with trypan blue and the number of living (non-blue) cells was counted. FIG. 1 indicates an IC50 value of 5 μM.
Kinetic of the observed killing effect of the AD-2646 compound was next examined. HL60 cells were incubated with 40 μM of AD-2646 for 1, 3, 5 and 7 hours. Already after 1 hour a reduction of 60% of the viable cell number was observed.

For series [3], the system named is Bod3-GC (glucosylceramide) synthesis in HL60 cells. The experiment in a line: Sphingolipid metabolism from Bodipy-C3-ceramide: Bod3-GC in HL60. The series is classed as cell-based, Human. To be noted: for reduction of the level of Bod3-GC (fluorescent image): HL60, 10 μM. On the procedure:
(§2) In order to examine the effect of the different compounds on sphingolipids metabolism, different cell lines were incubated with increasing concentrations of different compounds of the invention in the presence of 2.5 μM Bodipy-C3-ceramide that was added to the culture medium as a solution in dimethylsulfoxide (not exceeding 0.1% DMSO of the final volium). After 3 hours, cells and medium were collected and centrifuged. Cells were next extracted with chloroform-methanol containing 2% acetic acid 1:1 (by volume) and the medium was shaken with an equal volume of chloroform-methanol, 1:1 (by volume). The phases were separated by centrifugation and the lower chloroform phase was collected. The solvents were evaporated and applied to thin layer chromatography silica gel plates (Whatman 4865-821) with a concentrating zone.
(§3) Plates were developed as follows: For medium: in chloroform-methanol-H2O, 75:25:4 by volume. For cells: plates were first developed with chloroform-methanol, 9:1, then dried and re-run in chloroform-methanol: H2O, 65:35:4.
(§4) Standards of Bodipy-C3-ceramide: Bodipy-C3-glucosylceramide (Bod3-GC) and Bodipy C3 sphingomyelin (Bod3-SPM) were used as markers. The fluorescence of the respective Bod3-SPM and Bod3-GC spots was quantified using a Fuji FLA-2000 scanner.

In series [4] the test system is Swiss mice. The experiment in a line: In vivo toxicity of AD-2646, mice viability. On the procedure:
Six groups, each of 5 Swiss mice were injected, intra-peritoneally with solutions of AD-2646, at varying concentrations, each in a volume of 100 μl. Injections were performed on days 1, 2, 3, 4, and mice viability was tested (Table 5).

Series [5] relates to Bod3-SPM (sphingomyelin) synthesis in HL60 cells. The experiment in a line: Sphingolipid metabolism from Bodipy-C3-ceramide: Bod3-SPM in HL60. To be noted: for pIC50: HL60, 3 hours, 2.5 μM Bodipy-C3-ceramide, read-out: od 3-SPM (IC50 for reduction of Bod3-SPM, cell+medium); for inhibition of Bod3-SPM (fluorescent image): HL60, 10 μM. The series is classed as cell-based, Human. On the procedure:
as §2, §3, §4

Series [6] deals with HL60 cells. The experiment in a line: Apoptosis in HL60 cells, propidium iodide flow cytometry (FACS). Format: cell-based, Human. On the procedure: The apoptotic effect of three different compounds was further examined on HL60 cells using a flow cytometry method. […] Washed cells were then treated with 5% Triton and stained with propidium iodide 0.5% mg in 0.1% sodium citrate pH 7.4. Analysis was performed using a Becton Dickinson Fluorescence Activated Cell Sorter (FACS).
(A flow cytometer gives signals particle by particle.)

Series [7] concerns Bod3-SPM synthesis in TSU-PR1 prostate cancer cells. The experiment in a line: Sphingolipid metabolism: Bod3-SPM in TSU-PR1. Format: cell-based. The conditions noted are these: TSU-PR1, 3 hours, FIG. 5; read-out: IC50 for reduction of Bod3-SPM. How it is done:
as §2, §3, §4
The effect of AD-2646 on sphingolipid metabolism was further examined using TSU-PR1 prostate cancer cells.

For series [8] the following is noted: literature (Wieder et al. 1998); cited from earlier work.
Where [9] appears, read: HL60, two days, 4 μM AD-2646 plus 2 ng Taxol.

pIC50: −log10 of the molar value.

For `CC(C)(C)OC(=O)NCCCCCCCCCCCC(=O)Nc1ccc([C@H](O)[C@@H](CO)NC(=O)OC(C)(C)C)cc1` [AD-2620, (2R,3S)-2-BOC-amino-1-[4-N-(dodecanoyl-12-N-BOC amine)-phenyl)-1,3-propanediol], the pIC50 in series [1] (HL60, two days, read-out: C50 (cell viability, total cell protein)) is 5.52.

Take `CCCCCCCCCCCCCCN[C@H](CO)[C@H](O)c1ccc([N+](=O)[O-])cc1` [AD-2646, (2R,3R)-2-(N-tetradecylamine)-1-(4-nitrophenyl)-1,3-propanediol]: the pIC50 in series [2] was 5.30; in series [3] (HL60, 3 hours, 2.5 μM Bodipy-C3-ceramide, read-out: od 3-GC (IC50 for Bod3-GC reduction)), 4.92; in series [5], approximately 5.22; in series [1] (HL60, 2 days, Bradford, read-out: IC50, protein content) it was 5.30; in series [7], approximately 5.30. For the same compound, the “No. of mice in each day” value was determined as 5 in series [4] (1 mg/kg i.p. days 1-4, groups of 5 mice, day 1); 5 in series [4] (1 mg/kg i.p. days 1-4, groups of 5 mice, day 2); 5 in series [4] (1 mg/kg i.p. days 1-4, groups of 5 mice, day 3); 5 in series [4] (1 mg/kg i.p. days 1-4, groups of 5 mice, day 4); 5 in series [4] (1 mg/kg i.p. days 1-4, groups of 5 mice, day 5); 5 in series [4] (1 mg/kg i.p. days 1-4, groups of 5 mice, day 6). Moreover, the “No. of mice in each day” value in series [4] (5 mg/kg i.p. days 1-4, groups of 5 mice, day 1) is recorded as 5; in series [4] (5 mg/kg i.p. days 1-4, groups of 5 mice, day 2), 5; in series [4] (5 mg/kg i.p. days 1-4, groups of 5 mice, day 3) it was 5; in series [4] (5 mg/kg i.p. days 1-4, groups of 5 mice, day 4) it was 5; in series [4] (5 mg/kg i.p. days 1-4, groups of 5 mice, day 5) it was 5; in series [4] (5 mg/kg i.p. days 1-4, groups of 5 mice, day 6), 5. The “No. of mice in each day” value was determined as 5 in series [4] (10 mg/kg i.p. days 1-4, groups of 5 mice, day 1); 5 in series [4] (10 mg/kg i.p. days 1-4, groups of 5 mice, day 2); 5 in series [4] (10 mg/kg i.p. days 1-4, groups of 5 mice, day 3); 5 in series [4] (10 mg/kg i.p. days 1-4, groups of 5 mice, day 4); 5 in series [4] (10 mg/kg i.p. days 1-4, groups of 5 mice, day 5); 5 in series [4] (10 mg/kg i.p. days 1-4, groups of 5 mice, day 6). Besides, the “No. of mice in each day” value was 5 in series [4] (25 mg/kg i.p. days 1-4, groups of 5 mice, day 2); 5 in series [4] (25 mg/kg i.p. days 1-4, groups of 5 mice, day 3); 5 in series [4] (25 mg/kg i.p. days 1-4, groups of 5 mice, day 4); 5 in series [4] (25 mg/kg i.p. days 1-4, groups of 5 mice, day 5); 5 in series [4] (25 mg/kg i.p. days 1-4, groups of 5 mice, day 6); 5 in series [4] (50 mg/kg i.p. days 1-4, groups of 5 mice, day 1). Besides, the “No. of mice in each day” value in series [4] (50 mg/kg i.p. days 1-4, groups of 5 mice, day 2) is 5. Besides, the apoptotic cells is 12% in series [6] (HL60, 3 hours, 10 μM); 18% in series [6] (HL60, 3 hours, 20 μM); 26% in series [6] (HL60, 3 hours, 40 μM); “about 50%” in series [6] (HL60, 24 hours, 10 μM). Moreover, in series [1] (setting [9]), the Protein content is 93 µg. For the same compound, the “cooperative effect with Taxol on total protein quantity” value in series [1] (setting [9]) is on record as “synergism”.

In the case of `CCCCCCCCCCCCCCN[C@H](CO)[C@H](O)c1ccc(N)cc1` [AD-2672, (2R,3R)-2-(N-tetradecylamine)-1-(4-aminophenyl)-1,3-propanediol], the “effect on level of Bod3-GC (fluorescent image)” value in series [3] (HL60, 5 and 10 μM, FIG. 6) is listed as “not”. Moreover, in series [5] (HL60, 5 and 10 μM, FIG. 6), the “effect on level of Bod3-SPM (fluorescent image)” value is recorded as “strongly reduces”. In addition, in series [5], the pIC50 is 5.40.

For `CCCCCCCCCCCC(=O)Nc1ccc([C@@H](O)[C@H](N)CO)cc1` [AD-2673, (2R,3R)-2 amino-1-(N-dodecanoylaminophenyl)-1,3-propanediol], the “reduction of the level of Bod3-GC (fluorescent image)” value in series [3] (FIG. 6) is “much stronger reduction”. In series [5] (FIG. 6), the “inhibition of Bod3-SPM (fluorescent image)” value is “low inhibition”. For the same compound, the pIC50 in series [5] is 5.22.

`CCCCCCCCCCCC(=O)Nc1ccc([C@H](O)[C@@H](N)CO)cc1` [AD-2674]: in series [3] (FIG. 6), the “reduction of the level of Bod3-GC (fluorescent image)” value was “much stronger reduction”. The “inhibition of Bod3-SPM (fluorescent image)” value in series [5] (FIG. 6) is “low inhibition”.

As for `CCCCCCCCCCCCCCCCOP(=O)([O-])OCC[N+](C)(C)C` [HePC, hexadecylphosphocholine], the “concentration shown to induce apoptosis” value in series [8] was 25 µM.

As for `CC(=O)O[C@H]1C(=O)[C@@]2(C)[C@H]([C@H](OC(=O)c3ccccc3)[C@]3(O)C[C@H](OC(=O)[C@H](O)[C@@H](NC(=O)c4ccccc4)c4ccccc4)C(C)=C1C3(C)C)[C@]1(OC(C)=O)CO[C@@H]1C[C@@H]2O` [Taxol, reference compound], the Protein content in series [1] (HL60, two days, 2 ng Taxol alone) stood at 206 µg.
